In patent US20100167925A1, “Substituted Azolin-2-yl-Amino Compounds” (BASF SE, priority 2006, published 2010):

Assays:
Aphis gossypii = assay: Cotton aphid (Aphis gossypii) mortality on dipped cotton plants; format: in vivo; conditions: 120 h, cotton plants in cotyledon stage dipped into test solution, aphid mortality determined after 5 days, read-out: mortality in comparison with untreated controls
Method: I. Cotton Aphid (Aphis gossypii)
(§1) Cotton plants in the cotyledon stage (variety ‘Delta Pine’) are infested with approximately 100 laboratory-reared aphids by placing infested leaf sections on top of the test plants. The leaf sections are removed after 24 hours. The cotyledons of the intact plants are dipped into gradient solutions of the test compound. Aphid mortality on the treated plants, relative to mortality on check plants, is determined after 5 days.

Myzus persicae = assay: Green peach aphid (Myzus persicae) mortality on dipped pepper plants; format: in vivo; conditions: 120 h, pepper plants in 2nd leaf-pair stage dipped into test solution, aphid mortality determined after 5 days, read-out: mortality in comparison with untreated controls
Method: I.b. Green Peach Aphid (Myzus persicae)
as §1, with “Pepper” for “Cotton”, “2nd leaf-pair” for “cotyledon”, “‘California Wonder’)” for “‘Delta Pine’)”, “40” for “100”, “leaves” for “cotyledons”

Structure (SMILES): CC1(C)Cc2ccccc2C1NC1=NCCS1 (stereo not drawn) [Example 22, (4,5-Dihydro-thiazol-2-yl)-(2,2-dimethyl-indan-1-yl)-amine]
- mortality at 300 ppm (Aphis gossypii): > 70%
- mortality at 300 ppm (Myzus persicae): > 70%

Structure (SMILES): CC1(C)Cc2ccccc2C1N=C1SCCN1C1=NCCS1 (stereo not drawn)
- melting point: 161 to 163 °C
